Assay results taken from patent US20250255876A1, “COMPOSITIONS AND METHODS FOR CANCER TREATMENT” (ARIEL SCIENTIFIC INNOVATIONS LTD., priority 2021, published 2025).

Columns and labels:
MAD2L2-Rev1 complex = MAD2L2-Rev1 complex (Homo sapiens, UniProt Q9UI95); experiment: GFP-Trap co-immunoprecipitation of YFP-Rev1 and myc-MAD2L2 in HEK293 cells; assay type: cell-based; set-up: expressed in transfected cells; host or cells: HEK293; settings: 50 μM; for reduction of MAD2L2-Rev1 binding (complex formation): 24 h
Experimental: HEK293 cells were plated in 10-cm plates at 40-50% confluency. The next day, the cells were co-transfected with YFP-Rev1 and myc-MAD2L2 plasmids. After 24 hours, 50 µM inhibitor compounds (or DMSO negative control) were applied to the cells and growth continued for another 24 hours. The cells were then harvested and protein extraction was performed, followed by IP pulldown of the YFP-Rev1 species with GFP-Trap A conjugated agarose beads, to assess the levels of Co-IP'ed myc-REV7.
Medium/DMEM (Biological Industries Israel Beit Haemek; 01-052-1A) with 4.5 g/l D-glucose, 4 mM L-glutamine, 10% fetal bovine serum (Biological Industries Israel Beit Haemek; 04-007-1A), and 1% penicillin/streptomycin. The H1975 cells were cultured in RPMI 1640 medium (Biological Industries Israel Beit Haemek; 01-100-1A) with 4.5 g/l D-glucose, 4 mM L-glutamine, 10% fetal bovine serum (Biological Industries Israel Beit Haemek; 04-007-1A), and 1% penicillin/streptomycin. Transfections of HEK293 cells with plasmid DNA were performed using the Avalanche® Everyday Transfection Reagent (EZT-EVDY-1); according to the manufacturer's protocol. Briefly, cells were passaged the day before transfection to reach a confluency of 60-70%. The next day, the selected plasmid DNA was incubated in serum-free media with the recommended volume of transfection reagent for 20 minutes at room temperature. This transfection mix was gently added to the prepared cell culture plate(s) for continued incubation at 37° C. For co-IP experiment plates, after 24 hours, the relevant compound (DMSO vehicle, c #2, or c #3) was added in pre-warmed media, and the transfected plates were incubated for another 24 hours at 37° C. until harvesting.
HEK293 cells were harvested 48 h following co-transfection and lysed in extraction buffer (50 mM Tris pH 8, 150 mM NaCl, 20 mM EDTA, 50 mM NaF, 1% TritonX) supplemented with Merck® 1000×protease inhibitor (539134). Cells were lysed on ice for 30 minutes and centrifuged at 20,000 g for 30 minutes at 4° C. For immunoblotting, extracts were boiled in Laemmli buffer for 5 min. Equal amounts of protein sample (30 μg) were loaded on 8%-12% acrylamide gel and transferred to a nitrocellulose membrane (Amersham). For immunoprecipitations, clarified lysates were supplemented with 7 μl of equilibrated GFP-Trap antibody-conjugated agarose beads (Chromotek; gta-20) and incubated for 1-2 h at 4° C. Beads were washed three times in PBS buffer and boiled in Laemmli buffer for 5 minutes. The following primary antibodies were used for immunoblotting: Myc (Santa Cruz; SC-40) 1:1000 dilution, GFP (Santa Cruz, SC-9996) 1:1000 dilution, MAD2L2 (ProteinTech; 12683-1-AP). […]

[1] = tested on: γH2AX foci in H1975 cells; experiment: γH2AX foci immunofluorescence, H1975 cells; assay type: cell-based, human; settings: for number of γH2AX foci/cell, combined treatment: overnight
Experimental: (§1) H1975 and A549 cells were grown on glass coverslips in 12-well plates with the appropriate media, and fixed in 4% paraformaldehyde for 10 minutes at room temperature. Cells were permeabilizedin 0.5% TritonX100 in PBS×1 for 10 minutes at room temperature and then blocked in 5% BSA in 0.1% PBS×1-Tween for 1 hour at room temperature. Anti-phospho-Histone H2A.X primary antibody ([…]; 05-636-25UG) diluted 1:400 in 5% BSA in 0.1% PBS×1-Tween was added for 1 hour at room temperature. Fluorescent-dye conjugated secondary antibody was applied for 1 hour at room temperature. The coverslips were washed between each step with PBS×1. Nuclei were stained with DAPI (1:2000 dilution) at room temperature in the dark for 3 minutes. Coverslips were mounted on glass slides and imaged using an Olympus 1×81 microscope. For all treatments, cells with fewer than 80 foci were scored manually (FIG. 4B), and cells with more than 80 foci and very bright signals were scored automatically by using the “Analyze Particles” function in ImageJ (National Institutes of Health) after setting a suitable threshold.
(§2) Next, the inventors examined whether combined treatment of cisplatin with c #2 or c #3 correlates with an increase in DNA damage, which might explain the compound's sensitization effect. A549 and H1975 cell lines were exposed to combined overnight treatment with cisplatin and c #2 or c #3, and the levels of γH2AX foci were monitored. In both cell lines, a clear increase in the number of foci was observed after combined treatment, compared to cells treated with cisplatin or compounds alone (FIG. 12A).
(§3) Combined treatment of cisplatin with c #3 correlates with an increase in DNA damage. Levels of γ-H2AX foci, a marker for DNA double-strand breaks, were compared in H1975, A549 and B16F10 cell lines.

γH2AX foci in A549 cells = experiment: γH2AX foci immunofluorescence, A549 cells; assay type: cell-based; settings: for cells with more than 80 foci or very bright signal, combined treatment / number of γH2AX foci/cell, combined treatment: A549, 10 μM cisplatin + 50 μM compound; for number of γH2AX foci/cell, combined treatment: overnight
Experimental: as §1, §2, §3

[2] = H1975, 5 μM cisplatin + 50 μM compound

Sequence of MAD2L2-Rev1 complex (Q9UI95 whole entry, one chain of several): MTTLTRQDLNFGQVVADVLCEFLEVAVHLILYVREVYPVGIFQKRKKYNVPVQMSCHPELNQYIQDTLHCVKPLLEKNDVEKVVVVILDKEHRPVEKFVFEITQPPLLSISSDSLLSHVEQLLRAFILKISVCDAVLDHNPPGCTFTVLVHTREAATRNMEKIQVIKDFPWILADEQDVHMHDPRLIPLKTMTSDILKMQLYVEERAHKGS

Structure (SMILES) | Rev1-Rev7 binding interaction (in words) (MAD2L2-Rev1 complex) | reduction of MAD2L2-Rev1 binding (complex formation) (MAD2L2-Rev1 complex) | increase in γ-H2AX foci/cell in co-treated cells ([1]; H1975, 5 μM cisplatin + 50 μM c #3, 16 h) [fold] | cells with more than 80 foci or very bright signal, combined treatment [1, 2] | number of γH2AX foci/cell, combined treatment [1, 2] | γ-H2AX signal, c #3 alone ([1]; H1975, c #3 alone) | increase in γ-H2AX foci/cell in co-treated cells (γH2AX foci in A549 cells; A549, 10 μM cisplatin + 50 μM c #3, 16 h) [fold] | cells with more than 80 foci or very bright signal, combined treatment (γH2AX foci in A549 cells) | number of γH2AX foci/cell, combined treatment (γH2AX foci in A549 cells) | γ-H2AX signal, c #3 alone (γH2AX foci in A549 cells; A549, c #3 alone)
Cc1oc(-c2ccco2)nc1CC(=O)N[C@@H](C(=O)O)c1ccccc1 [Compound 3] | reduction in Rev1-Rev7 binding interaction | about 80% | 2 | significantly more abundant | significant increase in the number of γH2AX foci/cell | no effect on the γ-H2AX signal | 2 | significantly more abundant | significant increase in the number of γH2AX foci/cell | no effect on the γ-H2AX signal
CNc1nc(N2CCCCC2)nc(-n2cnc(SCC(N)=O)n2)n1 [Compound 2] | reduction in Rev1-Rev7 binding interaction | about 50% |  |  | significant increase in the number of γH2AX foci/cell |  |  | significantly more abundant | significant increase in the number of γH2AX foci/cell | 
